Assays:
ICR mice [1] = assay: Mouse tail-hanging experiment; assay type: in vivo
Excerpt: Experiment 1: The Influence of Embodiment 3 in the Mouse Tail-Hanging Experiment 1.1 Experimental animals: ICR mice, male, 22.0±2 g of body weight, secondary, were provided by the Experimental Animal Science Department of Capital Medical University, Beijing. 1.2 Experiment pharmaceuticals: The pharmaceutical of Embodiment 3 was provided by Beijing Wonner Biotech. Ltd. Co., and Paroxetine (Paxil) was the product of Zhong Mei Tianjin Smith Kline pharmaceuticals Co. Ltd. 1.4 Dose designs: 1. High dose of Embodiment 3 (5 mg/kg/d); 2. middle dose of Embodiment 3 (2.5 mg/kg/d); and 3. low dose of Embodiment 3 (1.25 mg/kg/d). 1.5.1 Group division and administration of drug: The mice were grouped randomly, with 10 mice per group. 1. High dose of Embodiment 3 (5 mg/kg, per oral (P.O.), administered for 7 days); 2. middle dose of Embodiment 3 (2.5 mg/kg, P.O., administered for 7 days); 3. low dose of Embodiment 3 (1.25 mg/kg, P.O., administered for 7 days); 4. Paroxetine (3 mg/kg, P.O., administered for 7 days); and 5. physiological saline (P.O.). After 1 hour of the last drug administration, the mouse tail-hanging experiment was proceeded. […] The time of non-movement of the mouse for the last 5 minutes was recorded. 1.5.3 Statistic calculation: The experimental data are represented as X±SD , and the experimental result was calculated as analysis of variance (ANOVA) by SPSS 11.5 statistic software.

ICR mice [2] = assay: Mouse swimming by compulsion experiment; assay type: in vivo
Excerpt: Experiment 2: The Influence of Embodiment 3 in the Mouse Swimming by Compulsion Experiment 2.1 Experimental animals: ICR mice, male, 22.0±2 g body weight, secondary, were provided by the Experimental Animal Science Department of Capital Medical University, Beijing. 2.2 Experiment pharmaceuticals: The pharmaceutical of Embodiment 3 was provided by Beijing Wonner Biotech. Ltd. Co., and Paroxetine (Paxil) was the product of Zhong Mei Tianjin Smith Kline pharmaceuticals Co. Ltd. 2.4 Dose designs: 1. High dose of Embodiment 3 (5 mg/kg/d); 2. middle dose of Embodiment 3 (2.5 mg/kg/d); and 3. low dose of Embodiment 3 (1.25 mg/kg/d). 2.5.1 Group division and administration of drug: The mice were grouped randomly, with 10 mice per group. 1. High dose of Embodiment 3 (5 mg/kg, P.O., administered for 7 days); 2. middle dose of Embodiment 3 (2.5 mg/kg, P.O., administered for 7 days); 3. low dose of Embodiment 3 (1.25 mg/kg, P.O., administered for 7 days); 4. Paroxetine (3 mg/kg, P.O., administered for 7 days); and 5. physiological saline (P.O.). […] The accumulative time of non-movement of the mouse in the water for the last 5 minutes was recorded. 2.5.3 Statistic calculation: The experimental data are represented as X±SD, and the experimental result was calculated as ANOVA by SPSS 11.5 statistic software.

Fc1ccc([C@@H]2CCNC[C@H]2COc2ccc3c(c2)OCO3)cc1 [Paroxetine]
Time of non-movement (ICR mice [1]; Paroxetine 3 mg/kg P.O. for 7 days, tail hung 6 min, last 5 min recorded, 1 hour after last administration, X±SD): 67.59 ± 39.09 s | Effect on time of non-movement after the mouse's tail was hung (conclusion) (ICR mice [1]; high and middle doses of Embodiment 3, Paroxetine, significant in comparison with the physiological saline control): decreased the time of non-movement | Effect on time of non-movement in the mouse swimming by compulsion test (conclusion) (ICR mice [2]; high dose of Embodiment 3, Paroxetine): decreased the time of non-movement | immobility time (ICR mice [2]; table title: time of non-movement in swimming by compulsion, Paroxetine 3 mg/kg P.O. for 7 days, 25° C. water, last 5 minutes, X±SD): 83.4 ± 40.7 s
